In ChEMBL document CHEMBL1124319, “Synthesis of an analogue of tabtoxinine as a potential inhibitor of D-alanine:D-alanine ligase (ADP forming)” (J Med Chem, 1989):
Calls of active or inactive are those of the source. No cut-off for these calls is given here.

Experiments:
[1] = Compound was tested for its inhibitory activity against DAla-DAla Ligase; parameters: species or system Enterococcus faecalis
[2] = Compound was tested for its inhibitory activity against DAla-DAla Ligase at 1 mM; No activity; parameters: species or system Enterococcus faecalis
[3] = test system: Escherichia coli; assay: Antibacterial activity against Escherichia coli; Inactive; assay type: functional, organism-based
[4] = test system: Staphylococcus aureus; assay: Antibacterial activity against Staphylococcus aureus; Inactive; assay type: functional, organism-based

Compound | IC50 [1] [µM] | IC50 [2] | Activity [3] | Activity [4]
N[C@@H]1CONC1=O [CYCLOSERINE] | 250 |  |  | 
CC(N)P(=O)(O)O (stereo not drawn) | 930 |  |  | 
C[C@@H](N)[C@]1(O)CNC1=O |  | Not Active | inactive | inactive
C[C@@H](N)[C@@]1(O)CNC1=O |  | Not Active | inactive | inactive
